Assay [1] has as its target Sphingosine 1-phosphate receptor 2 (Homo sapiens, UniProt O95136). Briefly: Dose Response Cell Based Assay for Antagonists of the S1P2 Receptor. [Related pubchem assays: 856, 736 ]. The assay is classed as functional.
In another assay the target is Prothrombin (Homo sapiens, UniProt P00734). In words: Thrombin 1536 HTS Dose Response Confirmation. [Related pubchem assays: 1046 (Thrombin 1536 HTS; hits were confirmed in this assay)]. The assay is classed as functional.
In another assay the target is Estrogen receptor beta (Homo sapiens, UniProt Q92731).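 Further: recombinant ER-beta bound to coactivator SRC1 peptide in presence of estradiol agonist; inhibitors block coactivator peptide binding and lower the FRET signal.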
Assay [2] addresses Peroxisome proliferator-activated receptor gamma/Nuclear receptor corepressor 2 (Homo sapiens, UniProt P37231+Q9Y618). Briefly: Counterscreen for NR2E3 inverse agonists: TR-FRET-based biochemical high throughput dose response assay to identify inverse agonists of the interaction between peroxisome proliferator-activated receptor gamma (PPARg) and nuclear receptor co-repressor 2 (NCOR2). The assay is classed as functional.

In assay [3] the target is Photoreceptor-specific nuclear receptor (Homo sapiens, UniProt Q9Y5X4). Briefly: ligands suppressing NR2E3 nuclear receptor activity – biochemical, TR-FRET, dose response (AID 463256). The assay is classed as functional.
The target of a further assay is Genome polyprotein (Hepatitis C virus, UniProt Q2Q167). In words: disruption of hepatitis C core self-association – biochemical, TR-FRET, dose response (AID 2159).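 Further: blocks dimerization of HCV core protein measured by TR-FRET between tagged core106 pairs.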 Also on record: species or system Hepacivirus hominis.
The target in assay [4] is T1, Probable nicotinate-nucleotide adenylyltransferase (Staphylococcus aureus (strain N315), UniProt P65502). The class given is functional, Staphylococcus aureus subsp. aureus N315. The conditions noted are these: read-out: IC50_Mean.
Another assay has as its target Procathepsin L (Homo sapiens, UniProt P07711). In words: CTSL1 protease inhibition – biochemical, QFRET, 1536-well, counter-screen for M1/M17 aminopeptidase inhibitor project, dose response (AID 2214).
For assay [5], the target named is T1, Probable nicotinate-nucleotide adenylyltransferase. The assay is classed as functional, Staphylococcus aureus subsp. aureus N315.
The target of the next assay is Aspartyl aminopeptidase (Plasmodium falciparum 3D7, UniProt Q8I2J3). Briefly: Counterscreen for inhibitors of M1 and M17 aminopeptidases: QFRET-based biochemical high throughput dose response assay for inhibitors of the Plasmodium falciparum M18 Aspartyl Aminopeptidase (PFM18AAP). [Related PubChem assays: 1619 (Screening assay (M17LAP inhibitors).), 1445 (Screening assay (M1AAP inhibitors).)].

The target of a further assay is T2, Leucine aminopeptidase (Plasmodium falciparum 3D7, UniProt Q8IL11).
T2 sequence (Q8IL11 whole entry): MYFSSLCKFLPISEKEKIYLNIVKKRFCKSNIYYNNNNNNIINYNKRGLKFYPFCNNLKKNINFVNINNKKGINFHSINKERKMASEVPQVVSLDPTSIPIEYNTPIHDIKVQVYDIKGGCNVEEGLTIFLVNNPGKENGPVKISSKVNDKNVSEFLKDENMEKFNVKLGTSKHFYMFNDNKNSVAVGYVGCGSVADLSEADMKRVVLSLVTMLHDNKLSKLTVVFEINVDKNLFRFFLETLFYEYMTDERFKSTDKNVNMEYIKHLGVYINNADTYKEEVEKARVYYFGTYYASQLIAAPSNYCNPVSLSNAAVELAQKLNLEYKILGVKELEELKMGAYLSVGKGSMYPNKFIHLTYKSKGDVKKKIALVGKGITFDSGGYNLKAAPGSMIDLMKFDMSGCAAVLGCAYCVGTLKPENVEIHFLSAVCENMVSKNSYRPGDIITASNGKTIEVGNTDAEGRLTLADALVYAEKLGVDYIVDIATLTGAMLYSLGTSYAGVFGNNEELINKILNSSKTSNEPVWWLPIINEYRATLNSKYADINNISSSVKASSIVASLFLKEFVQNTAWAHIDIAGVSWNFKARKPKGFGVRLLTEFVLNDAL
In words: P. falciparum M17LAP inhibitors, primary screen, biochemical, fluorogenic H-Leu-NHMec substrate, 1536-well (AID 1619). The class given is functional.

In assay [6] the target is Mitogen-activated protein kinase 10 (Homo sapiens, UniProt P53779). Briefly: Dose response biochemical screening assay for inhibitors of c-Jun N-Terminal Kinase 3 (JNK3). [Related pubchem assays: 746 ].
The next assay addresses Cytochrome P450 2C9 (Homo sapiens, UniProt P11712).
A further assay addresses Cytochrome P450 2C19 (Homo sapiens, UniProt P33261). In words: Cytochrome panel assay with activity outcomes. Panel member name: p450-cyp2c19 Compounds with AC50 equal or less than 10 uM are considered active. The assay is classed as functional. The conditions noted are these: read-out: AC50.
Assay [7] is described as follows: OVCAR4 cell viability loss – plate reader, dry powder, SA11, cytotoxicity control for PAX8 inhibitor project, dose response (AID 743150). The conditions noted are these: OVCAR-4. The class given is functional, cell-based.
The nature of assay [8]: inhibitors acting on PAX2 in cells – cell-based, plate reader, dry powder samples, selectivity assay for PAX8 inhibitor project, dose response (AID 743048).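 Further: HEK293 cells carrying a WT1 promoter luciferase reporter driven by expressed Pax2; potency is for inhibition of Pax2 driven reporter signal.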 The assay is classed as functional.
Another assay has as its system INS1. In words: INS-1E survival protection against cytokine death – cell-based, luminescence, retest, dose response (AID 449756).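 Further: cell death triggered by IL-1 beta plus TNF-alpha plus IFN-gamma mixture; protective hits raise ATP signal compared with cytokine alone wells.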 The assay is classed as functional. The conditions noted are these: Rattus norvegicus.
Assay [9] in a line: PAX5 cellular inhibition readout – cell-based, plate reader, dry powder samples, selectivity assay for PAX8 inhibitor project, dose response (AID 743047).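 Further: HEK293 cells carrying a Pax5 driven CD19 promoter luciferase reporter; potency of inhibitors that lower reporter luminescence.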 The class given is functional.
Assay [10] can be described thus: COV434 cell viability loss – plate reader, dry powder, SA7, cytotoxicity control for PAX8 inhibitor project, dose response (AID 743145). The assay is classed as functional, cell-based.
The next assay has as its target Paired box protein Pax-8 (Homo sapiens, UniProt Q06710). In words: PAX8 transcriptional activity inhibition in RMG-I – RMG-I cells, luciferase, cherry-pick, dose response (AID 687027).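 Further: luciferase reporter driven by Pax8 target thyroperoxidase promoter measured by SteadyGlo luminescence.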 The assay is classed as functional, cell-based.
Assay [11] concerns the target T3, Type-1 angiotensin II receptor (Homo sapiens, UniProt P30556).
T3 sequence (P30556 whole entry): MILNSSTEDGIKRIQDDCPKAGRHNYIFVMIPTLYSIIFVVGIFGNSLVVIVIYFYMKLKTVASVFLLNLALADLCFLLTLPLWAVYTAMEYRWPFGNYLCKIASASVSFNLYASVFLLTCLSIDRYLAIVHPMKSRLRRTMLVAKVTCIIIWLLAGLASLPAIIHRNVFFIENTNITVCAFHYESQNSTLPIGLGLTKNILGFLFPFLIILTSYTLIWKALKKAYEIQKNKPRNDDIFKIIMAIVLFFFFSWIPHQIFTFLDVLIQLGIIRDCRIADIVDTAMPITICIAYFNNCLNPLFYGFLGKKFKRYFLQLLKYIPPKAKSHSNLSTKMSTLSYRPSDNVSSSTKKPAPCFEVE
In words: agonist activity at AGTR1 – cell-based, uHTS hits, selectivity assay for APJ receptor agonist project, dose response (AID 488865).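 Further: beta-arrestin recruitment to AT1 measured by enzyme fragment complementation luminescence.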 The assay is classed as functional.

Assay [12] is described as follows: cells. The assay is classed as functional, cell-based.
Assay [13] in a line: PAX8-dependent cell viability loss – plate reader, dry powder, dose response (AID 743049). The assay is classed as functional, cell-based.
Assay [14] deals with Streptococcus sp. 'group A'. In words: Streptococcus pyogenes SK(-)GAS viability under kanamycin – luminescence, BacTiterGlo, confirmation, counter-screen for streptokinase expression inhibitor project, dose response (AID 1900). The assay is classed as functional, organism-based.
The next assay concerns Streptococcus. Briefly: GAS UMAA2166 growth inhibition – luminescence, BacTiterGlo, counter-screen for streptokinase expression inhibitor project, dose response (AID 1915).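 Further: potency for reduction of bacterial viability or growth.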 The class given is functional, organism-based.
Assay [15] can be described thus: Trypanosoma cruzi growth suppression in host cells – NIH3T3 host cells, beta-gal luminescence, confirmation (AID 2044).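 Further: intracellular parasites grown in NIH/3T3 mouse fibroblasts as host cells; luminescent beta-galactosidase reporter signal from transgenic T. cruzi replicating inside host cells; inhibitors lower the luminescence signal.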 The class given is functional, cell-based.
Assay [16] can be described thus: NIH3T3 cell viability loss – ATP luminescence, mouse fibroblasts, counter-screen, dose response (AID 2010).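 Further: cells exposed to compound for about 90 hours before reading.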 The class given is functional, cell-based.
Assay [17] is described as follows: OVCAR-3 cell viability loss – plate reader, dry powder samples, PAX8 inhibitor project, dose response (AID 743044). The assay is classed as functional, cell-based.
The nature of assay [18]: COV362 cell viability loss – plate reader, dry powder, SA12, cytotoxicity control for PAX8 inhibitor project, dose response (AID 743144). The assay is classed as functional, cell-based.
A short description of assay [19]: OV-90 cell viability loss – plate reader, dry powder, SA8, PAX8 inhibitor project, dose response (AID 743149). The assay is classed as functional, cell-based.
Assay [20] is described as follows: non-specific 3'UTR reporter inhibition in Clone20-Shn3RL – cell-based, Renilla luciferase, cherry-picked, counter-screen for Shn3 inhibitor project, dose response (AID 624133). The assay is classed as functional.
The nature of assay [21]: reduction of Shn3 3'UTR-driven luciferase in osteoblasts – cell-based, Clone20 osteoblasts, firefly luciferase, cherry-picked, dose response (AID 624132).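 Further: firefly luciferase luminescence from reporter carrying the Shn3 3'UTR in osteoblasts.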 The assay is classed as functional.
The nature of assay [22]: cells. The class given is functional, cell-based. The source holds these as a separate data set.
Assay [23] is described as follows: A2780 cell killing – plate reader, dry powder samples, cytotoxicity control, dose response (AID 743046). The class given is functional, cell-based.
Assay [24] in a line: loss of viability in HepG2 cells – cell-based, CellTiter-Glo, cherry-picked, cytotoxicity control for Shn3 inhibitor project, dose response (AID 624134). The class given is functional.
Assay [25] can be described thus: IGROV1 cell killing – plate reader, dry powder samples, PAX8 inhibitor project, dose response (AID 743043). The class given is functional, cell-based. Particulars: IGROV-1.

The source made the active and inactive calls. Bounds are passed on as bounds.
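Wherever IC50 Mean is given: confirmatory dose-response retesting of NadD inhibitor hits first found in an ultra-high-throughput screen.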

T1 sequence (P65502 whole entry): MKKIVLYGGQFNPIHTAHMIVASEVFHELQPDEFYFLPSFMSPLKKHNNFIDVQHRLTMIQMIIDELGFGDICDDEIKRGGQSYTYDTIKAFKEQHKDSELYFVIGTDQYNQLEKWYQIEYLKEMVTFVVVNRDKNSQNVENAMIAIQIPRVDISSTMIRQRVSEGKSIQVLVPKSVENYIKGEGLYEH
Chain of Procathepsin L (P07711 whole entry): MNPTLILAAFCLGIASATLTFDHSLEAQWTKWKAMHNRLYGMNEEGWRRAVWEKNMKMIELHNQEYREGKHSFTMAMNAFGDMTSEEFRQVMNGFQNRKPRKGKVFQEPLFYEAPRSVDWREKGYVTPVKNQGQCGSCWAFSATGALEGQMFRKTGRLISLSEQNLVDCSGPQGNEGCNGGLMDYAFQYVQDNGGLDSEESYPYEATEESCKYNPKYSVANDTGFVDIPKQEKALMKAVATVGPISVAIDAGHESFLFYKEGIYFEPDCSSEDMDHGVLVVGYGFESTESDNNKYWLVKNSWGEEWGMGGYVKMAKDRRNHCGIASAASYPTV
Chain of Sphingosine 1-phosphate receptor 2 (O95136 whole entry): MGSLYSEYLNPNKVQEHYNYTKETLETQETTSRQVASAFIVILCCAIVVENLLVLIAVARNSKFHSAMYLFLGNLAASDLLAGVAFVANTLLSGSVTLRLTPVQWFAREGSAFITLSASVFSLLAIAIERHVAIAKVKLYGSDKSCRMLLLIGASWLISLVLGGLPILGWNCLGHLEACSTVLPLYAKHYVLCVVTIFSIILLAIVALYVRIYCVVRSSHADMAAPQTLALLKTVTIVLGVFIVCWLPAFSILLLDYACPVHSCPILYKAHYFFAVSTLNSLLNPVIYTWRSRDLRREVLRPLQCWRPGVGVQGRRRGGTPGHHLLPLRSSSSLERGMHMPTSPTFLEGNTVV
Chain of Mitogen-activated protein kinase 10 (P53779 whole entry): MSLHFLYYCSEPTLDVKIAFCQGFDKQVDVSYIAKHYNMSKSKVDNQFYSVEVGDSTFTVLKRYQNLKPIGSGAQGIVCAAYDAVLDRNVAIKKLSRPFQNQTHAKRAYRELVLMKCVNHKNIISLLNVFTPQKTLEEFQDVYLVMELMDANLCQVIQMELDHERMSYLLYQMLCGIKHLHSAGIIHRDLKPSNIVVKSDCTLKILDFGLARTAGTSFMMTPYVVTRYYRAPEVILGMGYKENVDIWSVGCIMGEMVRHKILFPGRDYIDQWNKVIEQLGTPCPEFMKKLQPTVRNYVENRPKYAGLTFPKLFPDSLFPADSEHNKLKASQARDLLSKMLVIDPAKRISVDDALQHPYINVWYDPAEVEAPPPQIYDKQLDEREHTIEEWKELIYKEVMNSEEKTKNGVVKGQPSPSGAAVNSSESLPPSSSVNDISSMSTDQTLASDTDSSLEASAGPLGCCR
Chain of Cytochrome P450 2C9 (P11712 whole entry): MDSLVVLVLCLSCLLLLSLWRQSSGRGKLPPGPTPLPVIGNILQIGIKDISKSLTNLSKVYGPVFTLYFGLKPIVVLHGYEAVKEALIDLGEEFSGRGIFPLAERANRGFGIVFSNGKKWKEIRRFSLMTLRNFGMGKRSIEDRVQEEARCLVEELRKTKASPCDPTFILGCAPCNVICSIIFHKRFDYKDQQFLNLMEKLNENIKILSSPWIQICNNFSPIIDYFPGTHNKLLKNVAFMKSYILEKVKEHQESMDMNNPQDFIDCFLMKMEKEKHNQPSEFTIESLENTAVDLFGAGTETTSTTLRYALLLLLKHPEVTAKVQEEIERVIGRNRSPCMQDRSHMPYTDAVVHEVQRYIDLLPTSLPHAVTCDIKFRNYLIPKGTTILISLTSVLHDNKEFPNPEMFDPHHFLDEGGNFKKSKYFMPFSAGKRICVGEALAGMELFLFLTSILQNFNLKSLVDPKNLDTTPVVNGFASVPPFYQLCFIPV
Chain of Estrogen receptor beta (Q92731 whole entry): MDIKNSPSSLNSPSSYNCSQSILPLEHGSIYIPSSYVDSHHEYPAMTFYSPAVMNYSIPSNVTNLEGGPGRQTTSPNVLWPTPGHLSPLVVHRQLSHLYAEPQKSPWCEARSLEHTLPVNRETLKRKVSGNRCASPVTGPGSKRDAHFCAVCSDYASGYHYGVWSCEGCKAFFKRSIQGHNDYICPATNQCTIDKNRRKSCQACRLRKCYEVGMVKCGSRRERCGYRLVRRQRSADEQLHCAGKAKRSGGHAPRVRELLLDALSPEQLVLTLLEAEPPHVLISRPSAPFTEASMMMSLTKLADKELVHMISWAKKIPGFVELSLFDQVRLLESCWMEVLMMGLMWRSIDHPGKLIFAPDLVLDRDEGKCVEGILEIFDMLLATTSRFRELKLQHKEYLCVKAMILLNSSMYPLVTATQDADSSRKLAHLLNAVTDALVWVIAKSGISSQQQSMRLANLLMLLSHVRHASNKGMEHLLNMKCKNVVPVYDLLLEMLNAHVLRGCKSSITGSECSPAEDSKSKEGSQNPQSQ
Chain of Paired box protein Pax-8 (Q06710 whole entry): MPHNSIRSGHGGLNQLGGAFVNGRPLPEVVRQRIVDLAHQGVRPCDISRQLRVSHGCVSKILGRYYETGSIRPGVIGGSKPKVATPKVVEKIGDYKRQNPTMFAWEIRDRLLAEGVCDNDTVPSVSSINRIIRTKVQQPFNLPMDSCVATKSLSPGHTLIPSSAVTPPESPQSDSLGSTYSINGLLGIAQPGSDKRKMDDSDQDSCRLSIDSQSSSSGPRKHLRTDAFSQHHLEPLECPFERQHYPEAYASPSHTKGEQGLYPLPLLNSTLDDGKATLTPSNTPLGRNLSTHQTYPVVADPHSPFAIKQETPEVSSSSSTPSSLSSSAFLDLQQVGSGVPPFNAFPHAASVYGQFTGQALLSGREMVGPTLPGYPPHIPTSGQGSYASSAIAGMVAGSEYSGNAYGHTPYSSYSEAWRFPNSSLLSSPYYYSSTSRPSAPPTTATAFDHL
Chain of Cytochrome P450 2C19 (P33261 whole entry): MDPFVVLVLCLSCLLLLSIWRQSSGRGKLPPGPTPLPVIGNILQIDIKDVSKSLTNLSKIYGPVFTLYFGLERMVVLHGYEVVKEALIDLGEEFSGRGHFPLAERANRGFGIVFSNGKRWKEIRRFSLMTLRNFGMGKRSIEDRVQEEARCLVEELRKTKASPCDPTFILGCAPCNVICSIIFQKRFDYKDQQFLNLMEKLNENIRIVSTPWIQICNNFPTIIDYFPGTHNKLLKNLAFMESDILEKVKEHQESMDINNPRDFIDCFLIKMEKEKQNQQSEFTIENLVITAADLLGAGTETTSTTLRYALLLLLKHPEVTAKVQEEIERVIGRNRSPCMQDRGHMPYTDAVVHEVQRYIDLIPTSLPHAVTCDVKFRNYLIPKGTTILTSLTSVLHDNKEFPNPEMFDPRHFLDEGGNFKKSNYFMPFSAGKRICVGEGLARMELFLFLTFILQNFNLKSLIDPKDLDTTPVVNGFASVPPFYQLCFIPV
Chain of Aspartyl aminopeptidase (Q8I2J3 whole entry): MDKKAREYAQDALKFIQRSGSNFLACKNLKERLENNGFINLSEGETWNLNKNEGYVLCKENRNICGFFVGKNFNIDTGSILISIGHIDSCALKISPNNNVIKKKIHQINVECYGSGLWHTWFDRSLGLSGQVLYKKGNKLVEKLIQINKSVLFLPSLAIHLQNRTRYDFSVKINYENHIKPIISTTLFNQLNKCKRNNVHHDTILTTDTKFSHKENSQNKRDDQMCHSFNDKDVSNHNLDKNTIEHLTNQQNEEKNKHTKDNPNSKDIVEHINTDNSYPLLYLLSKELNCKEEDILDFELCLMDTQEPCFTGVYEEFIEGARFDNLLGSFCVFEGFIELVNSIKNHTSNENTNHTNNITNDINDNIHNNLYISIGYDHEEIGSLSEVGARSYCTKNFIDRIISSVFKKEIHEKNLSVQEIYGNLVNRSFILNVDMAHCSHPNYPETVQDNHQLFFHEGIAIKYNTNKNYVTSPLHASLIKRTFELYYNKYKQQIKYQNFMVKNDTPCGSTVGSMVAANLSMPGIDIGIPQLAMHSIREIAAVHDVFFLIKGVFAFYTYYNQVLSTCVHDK
Chain of Genome polyprotein (Q2Q167 whole entry): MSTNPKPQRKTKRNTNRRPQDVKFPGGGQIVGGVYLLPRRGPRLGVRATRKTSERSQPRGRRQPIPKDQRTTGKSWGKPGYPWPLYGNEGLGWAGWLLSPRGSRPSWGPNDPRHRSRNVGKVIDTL
Chain of Photoreceptor-specific nuclear receptor (Q9Y5X4 whole entry): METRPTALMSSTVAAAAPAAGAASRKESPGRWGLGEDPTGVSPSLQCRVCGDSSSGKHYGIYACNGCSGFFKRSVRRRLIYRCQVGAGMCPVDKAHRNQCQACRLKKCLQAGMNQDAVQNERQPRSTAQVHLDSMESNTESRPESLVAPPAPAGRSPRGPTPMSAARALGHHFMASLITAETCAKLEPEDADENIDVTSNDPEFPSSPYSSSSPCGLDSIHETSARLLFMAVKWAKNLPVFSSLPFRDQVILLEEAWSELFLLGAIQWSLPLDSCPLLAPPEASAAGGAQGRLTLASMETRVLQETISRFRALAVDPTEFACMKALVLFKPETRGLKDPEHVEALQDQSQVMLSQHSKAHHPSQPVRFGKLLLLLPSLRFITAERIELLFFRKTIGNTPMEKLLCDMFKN

`O=C(O)c1sc2cc(C(F)(F)F)cnc2c1-c1cccnc1`: the IC50 in assay [1] was > 30 µM (not active).

Consider `NC(=Nc1nc2ccccc2o1)NC(=O)c1ccccc1NC(=O)c1ccccc1`, for which the IC50 was > 50 µM (inconclusive) on Prothrombin and > 50 µM (not active) against Estrogen receptor beta.

`CN(C)c1ccc(C#Cc2ccc3cc(CCO)oc(=O)c3c2)cc1`: the IC50 in [2] and in [3] was > 39.8 µM (not active) in each case.

Take `CCOC(=O)c1sc(NC(=S)NC(=O)C2CC2)cc1C`: the IC50 against Genome polyprotein is listed as > 49.8 µM (not active).

As to `Cc1ccc(Nc2nnc(SC/C(O)=C(\C#N)c3nc4ccccc4[nH]3)s2)c(C)c1`, the IC50 in [4] is 21.4 µM (active); on Procathepsin L it was > 59.6 µM (not active); in assay [5], 7.79 µM (active); at Aspartyl aminopeptidase it was > 73.5 µM (not active); at Leucine aminopeptidase, 6.03 µM (active).

With `Fc1ccc2nc3[nH]c4ccccc4c3nc2c1`, in assay [6], the IC50 is 18.4 µM (not active). In addition, the AC50 is 10 µM (inconclusive) on Cytochrome P450 2C9 and 20 µM (inconclusive) on Cytochrome P450 2C19.

Regarding `Cc1cc(C)c2sc(NNC(=O)c3ccc(S(=O)(=O)N4CCc5ccccc5C4)cc3)nc2c1`, the half-maximal activity concentration (AC50) in assay [7] is 43.4 µM (active); in [8], 3.1 µM (active); in the assay with INS1, 1.36 µM (active); in assay [9], 4.85 µM (active); in assay [10], 12.4 µM (active); at Paired box protein Pax-8, 2.27 µM (active). For the same molecule, the concentration at half-maximal activity (AC50) in [13] was 10.3 µM (active); in [17], 6.31 µM (active); in assay [18], 19.2 µM (active); in assay [19], 20.8 µM (active); in assay [20], 1.35 µM (active); in [21], 1.8 µM (active). The AC50 is 6.67 µM (active) in assay [23], 33.1 µM (active) in [24] and 8.92 µM (active) in assay [25]. The IC50 in [4] is 42.2 µM (active); in assay [5], 7.44 µM (active). Besides, the EC50 in assay [11] was > 100 µM (inactive); in “cells [12]” it was 41.8 µM (active); in [14], 1.29 µM (active); in the assay with Streptococcus it was 3.44 µM (active); in [15], 1.22 µM (active); in assay [16], 1.82 µM (active). The EC50 in “cells [22]” is on record as > 350 µM (not active).
